Measurements: patent EP4361137A1, “PRUNE1 INHIBITORS AND THERAPEUTIC USE THEREOF” (CEINGE Biotecnologie Avanzate Franco Salvatore s.c. a r.l., priority 2022, dated 2024)

Experiments:
[1] = system: D425-Med cells; experiment: In vivo combinatorial treatment with Vincristine, orthotopic medulloblastoma model; design: species or system nude mice
Procedure: We then measured the combinatorial treatment with (S)-(1-(4-((4-methoxybenzyl)amino)-1,3,5-triazin-2-yl)piperidin-3-yl)methanol HCl salt compound and Vincristine in vivo. To this end, D425-Med cells (1 ×10^5 cells) were implanted into the fourth ventricle of nude mice (n=18). After 7 days from tumour implantation (i.e., once the tumours were established) the mice (grouped according to their bioluminescence values) were injected intraperitoneally with 0.3 mg/kg/day Vincristine alone or in combination with 6 mg/kg/day (S)-(1-(4-((4-methoxybenzyl)amino)-1,3,5-triazin-2-yl)piperidin-3-yl)methanol HCl salt compound for 18 days (Figures 9E).

[2] = system: D425-MED cells; experiment: Real-time cell proliferation assay (cell index, xCELLigence); format: cell-based, human; conditions: D425-Med cells
Procedure: J774A.1 murine macrophages (referred to as J774 cells; ATCC: #TIB-67), MMTV-Prune1-Wnt1 cells were grown in high-glucose Dulbecco's modified Eagle's medium (DMEM; Euroclone) supplemented with 20% (v/v) FBS, 2 mM L-glutamine, and 1% (v/v) antibiotics (Pen/Strep). D425-MED, D425-MED-Luc and […] cells were grown in high-glucose Dulbecco's modified Eagle's medium (DMEM; Euroclone) and Iscove's Modified Dulbecco's Medium (IMDM; Sigma) at 1:1 (v/v) dilution supplemented with 20% (v/v) FBS, 2 mM L-glutamine, 1% non-essential amino acid solution (M7145; Sigma-Aldrich/Merck), and 1% (v/v) antibiotics (Pen/Strep). The cells were grown at 37 °C in a humidified atmosphere of 95% air, 5% CO2 (v/v).
D425.MED and MMTV-Prune1/Wnt1 cells were plated and treated with increasing concentrations of LEO-AA7.5(S)T for 24 hours. Water-treated cells were used as negative control for the experiments.
(§1) Cellular proliferation rates were determined with the xCELLigence system (Roche). D425-MED, MATH-Prune1/TP53-/- and MMTV-Prune1/Wnt1 cells (8 × 10^3) were treated with increasing concentrations of LEO-AA7.5(S)T, harvested, and then added to a single well of an xCELLigence E-plate 16. The proliferation rates were determined at 2-min intervals by measuring the impedance changes across the electrodes at the bottoms of the wells. These cell index values were calculated by the xCELLigence RTCA software. with vehicle-treated cells were the negative control. Impedance was measured every 2 min over 24 hours. The IC50 values were calculated through nonlinear regression analysis performed with Graph Pad Prism 9 ([inhibitor] vs. response (three parameters). Data are means ± SD of three independent experiments.

[3] = system: MATH1-Prune1/TP53-/- cells; experiment: as above; format: cell-based, murine; conditions: impedance every 2 min over 24 h
Procedure: Primary murine TNBC cells from tumors generated by MMTV-Prune1/Wnt1 mice [Ferrucci et al., 2021] and Primary murine Medulloblastoma Group 3 cells from tumors generated MATH-Prune1/TP53-/- mice were obtained (2 months from tumor onset).
as §1

## COc1ccc(CNc2ncnc(N3CCC[C@H](CO)C3)n2)cc1.Cl [LEO-AA7.5(S)T, (S)-(1-(4-((4-methoxybenzyl)amino)-1,3,5-triazin-2-yl)piperidin-3-yl)methanol HCl salt]
[1]; 6 mg/kg/day plus 0.3 mg/kg/day Vincristine intraperitoneally for 18 days
  intracranial tumor growth, combinatorial treatment with Vincristine: significantly decreased
[1]; combinatorial treatment with Vincristine
  angiogenesis (IVISense Integrin Receptor 680 Fluorescent Probe): decreased levels of angiogenesis
[2]; 10 µM added to 10 nM or 1 nM Vincristine
  cell proliferation rate, combination with Vincristine: reduces the cell proliferation rate
[2]; 10 µM plus 22.5 µM Seclidemstat
  inhibition of cell proliferation, combination with Seclidemstat [SP-2577]: enhance the inhibition of cell proliferation
[2]; impedance every 2 min over 24 h
  half maximal inhibitory concentration (IC50) for the inhibition of cell proliferation index: 71 µM
[3]
  half maximal inhibitory concentration (IC50) for the inhibition of cell proliferation index: 31.1 µM
